Where a SMILES comes first, the peptide text is derived from it. [ ]: non-standard residue; d: D form. The star is where a group is joined. Hyp = O=C(O)[C@@H]1C[C@@H](O)CN1; NMeV = CN[C@H](C(=O)O)C(C)C; Pip = O=C(O)[C@@H]1CCCCN1; Cbz = O=C(OCc1ccccc1)*; CH2F = FC*
Assays:
[1] = test system: OCI-LY3; assay: Cell growth inhibition assay (CellTiter-Glo, 96 hours), OCI-LY3; type: cell-based, human; details: OCI-LY3 cells, treated at t=0 and t=48 hours, ATP luminescence
Protocol: DLBCL cell lines were grown in exponential growth conditions during the 96 hours of treatment. Cells were treated twice: at t=0 and t=48 hours, and cell viability was determined by ATP quantification using a luminescent method ([…]-GLO, Promega, Madison, Wis.). Cell viability in drug-treated cells was normalized to vehicle controls (fractional viability) and results are given as 1-fractional viability.
Experiments were Performed in Triplicate.

[2] = target: T1, MALT1 (Homo sapiens (Human), UniProt Q9UDY8); assay: X-ray co-crystal structure of compound and MALT1; type: binding; details: 2.0 angstrom resolution
Protocol: Compound 101 was incubated with MALT1 to form a complex, and the complex was purified and crystallized for structure determination. X-ray diffraction data was collected, and the compound 101-MALT1 structure was solved in 2.0 angstrom resolution. […] Exemplary evidence for the formation of the covalent bond is the existence of continuous electron density from compound 101 to the Cys464 residue of MALT1. The electron density is 2Fo−Fc map contoured at 1.0 sigma.

[3] = target: T1, MALT1; assay: Inhibition constants (Ki) for inhibition of MALT1; type: biochemical; details: 100 nM MALT1 used for the assay
Protocol: For exemplary compounds of the disclosure, Ki for inhibition of MALT1 was measured (Table E11). A concentration of 100 nM MALT1 was used for the assay.

[4] = test system: TMD8; assay: Maximum killing effect on TMD8; type: cell-based
Protocol: (§1) The maximum killing effects on cell-lines OCI-LY3, TMD8, and OCI-LY1 were also measured for select compounds at inhibitor concentration of 20 μM and 5 μM. TMD8 is another line of ABC type diffuse large-B cell lymphoma, while OCI-LY1 is a DLBCL line of the germinal center B-cell subtype.

[5] = test system: OCI-LY3; assay: Maximum killing effect on OCI-LY3; type: cell-based, human
Protocol: as §1

[6] = test system: OCI-LY1; assay: Maximum killing effect on OCI-LY1; type: cell-based
Protocol: as §1

[7] = test system: RelB cleavage; assay: Western blot for RelB cleavage in OCI-LY3 cells; type: cell-based, human; details: OCI-LY3 cells pretreated with inhibitor, then 5 μM MG-132 for 2 hours
Protocol: FIG. 1A. Western blots for RelB and MALT1 after 30 minutes pretreatment with indicated doses of compounds or vehicle, followed by proteasome inhibitor MG-132 (5 μM) treatment for 2 hours in OCI-LY3. clev=cleavage product of RelB.
FIG. 1B. Western blots for RelB with indicated doses of compounds or vehicle in OCI-LY3.
Western blot: OCI-Ly3 cells (a line of human diffuse large B-cell lymphoma (ABC type)) were pre-treated for 30 minutes with indicated doses of MALT1 inhibitors followed by a 2-hour treatment with proteasome inhibitor MG-132 at 5 μM. Protein was then extracted in a PBS-based lysis buffer containing 1% NP-40. Equal amounts of total protein (50 to 75 μg) were separated on sodium dodecyl sulfate-polyacrylamide gel electrophoresis (SDS-PAGE), and electrotransferred onto nitrocellulose membranes. Membranes were incubated with primary antibodies (MALT1, from Santa Cruz Biotechnologies, Santa Cruz, Calif.; RELB from Cell Signaling, Danvers, Mass., and α-Tubulin from Sigma), followed by secondary antibodies conjugated to horseradish peroxidase, which were detected by chemiluminescence (Pierce, Thermo Scientific, Rockford, Ill.).
OCI-LY3 cells were pretreated with the an inhibitor at the desired concentration and subsequently treated with 5 μM MG-132, a proteasome inhibitor, for 2 hours.

T1 sequence (Q9UDY8 whole entry): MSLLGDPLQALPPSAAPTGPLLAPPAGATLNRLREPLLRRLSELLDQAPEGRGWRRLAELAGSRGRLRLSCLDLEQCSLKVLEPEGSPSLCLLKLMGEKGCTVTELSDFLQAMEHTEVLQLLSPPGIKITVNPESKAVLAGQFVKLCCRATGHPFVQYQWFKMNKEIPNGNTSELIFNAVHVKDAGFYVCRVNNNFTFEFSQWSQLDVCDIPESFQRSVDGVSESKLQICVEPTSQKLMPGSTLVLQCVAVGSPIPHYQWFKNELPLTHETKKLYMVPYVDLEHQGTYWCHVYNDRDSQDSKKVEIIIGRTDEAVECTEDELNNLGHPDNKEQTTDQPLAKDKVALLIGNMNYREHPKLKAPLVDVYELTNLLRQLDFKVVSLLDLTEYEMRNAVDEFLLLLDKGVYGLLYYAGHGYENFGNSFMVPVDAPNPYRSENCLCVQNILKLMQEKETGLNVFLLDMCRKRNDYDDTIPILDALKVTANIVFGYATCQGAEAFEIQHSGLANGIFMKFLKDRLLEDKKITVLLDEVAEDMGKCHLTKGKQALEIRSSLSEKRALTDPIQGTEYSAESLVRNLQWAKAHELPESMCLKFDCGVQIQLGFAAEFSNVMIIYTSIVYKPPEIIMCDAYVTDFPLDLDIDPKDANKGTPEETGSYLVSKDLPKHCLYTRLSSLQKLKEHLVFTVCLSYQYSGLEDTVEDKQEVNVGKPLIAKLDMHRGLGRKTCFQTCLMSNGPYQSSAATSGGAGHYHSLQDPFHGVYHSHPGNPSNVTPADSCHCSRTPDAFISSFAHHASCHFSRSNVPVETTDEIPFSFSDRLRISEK

With CC(C)[C@H](NC(=O)OCc1ccccc1)C(=O)N1CCC[C@H]1C(=O)N[C@@H](CCCNC(=N)N)C(=O)CF [Compound 101, Benzyl ((S)-1-((S)-2-(((S)-1-fluoro-6-guanidino-2-oxohexan-3-yl)carbamoyl)pyrrolidin-1-yl)-3-methyl-1-oxobutan-2-yl)carbamate 2,2,2-trifluoroacetate] (Cbz-Val-Pro-Arg-CH2F) the GI50 ([1]; Homo sapiens) was 8520 nM, the “Covalent bond to Cys464 of MALT1 in co-crystal structure” value [2] was “formation of a covalent bond” and the Ki [3] was 40 nM. For the same compound, the Maximum killing effect ([4]; TMD8, 5 μM) was 50%, the Maximum killing effect ([4]; TMD8, 20 μM) was 63% and the Maximum killing effect ([5]; OCI-LY3, 5 μM) was 70%. For the same compound, the Maximum killing effect ([5]; OCI-LY3, 20 μM) was 79%, the Maximum killing effect ([6]; OCI-LY1, 5 μM) was <0% and the Maximum killing effect ([6]; OCI-LY1, 20 μM) was 7%.

CC(C)[C@H](NC(=O)OCc1ccccc1)C(=O)N1CCCC[C@H]1C(=O)N[C@@H](CCCNC(=N)N)C(=O)CF [Compound 107] (Cbz-Val-[Pip]-Arg-CH2F) was tested, and the “Inhibition of RelB cleavage (Western blot)” value (“Inhibition of RelB cleavage” below) [7] was “inhibition of RelB cleavage”, the GI50 ([1]; Homo sapiens) was 730 nM and the Ki [3] was 40 nM. For the same compound, the Maximum killing effect ([4]; TMD8, 5 μM) was 29%, the Maximum killing effect ([4]; TMD8, 20 μM) was 58% and the Maximum killing effect ([5]; OCI-LY3, 5 μM) was 38%. The Maximum killing effect ([5]; OCI-LY3, 20 μM) was 85%, the Maximum killing effect ([6]; OCI-LY1, 5 μM) was 3% and the Maximum killing effect ([6]; OCI-LY1, 20 μM) was 11%.

For CC(C)[C@H](NC(=O)OCc1ccccc1)C(=O)N1C[C@H](O)C[C@H]1C(=O)N[C@@H](CCCNC(=N)N)C(=O)CF [Compound 109] (Cbz-Val-[Hyp]-Arg-CH2F), the “Inhibition of RelB cleavage” value [7] was “inhibition of RelB cleavage”, the GI50 ([1]; Homo sapiens) was 290 nM and the Ki [3] was 53 nM.

CC(C)[C@@H](C(=O)N1CCC[C@H]1C(=O)N[C@@H](CCCNC(=N)N)C(=O)CF)N(C)C(=O)OCc1ccccc1 [Compound 112] (Cbz-[NMeV]-Pro-Arg-CH2F) was tested, and the “Inhibition of RelB cleavage” value [7] was “inhibition of RelB cleavage”, the GI50 ([1]; Homo sapiens) was > 20000 nM and the Ki [3] was 808 nM. The Maximum killing effect ([4]; TMD8, 20 μM) was 66%, the Maximum killing effect ([5]; OCI-LY3, 5 μM) was 28% and the Maximum killing effect ([5]; OCI-LY3, 20 μM) was 51%. It also gave a Maximum killing effect ([6]; OCI-LY1, 5 μM) of 5% and a Maximum killing effect ([6]; OCI-LY1, 20 μM) of 2%.

With CC(C)[C@H](NC(=O)c1ccc(Br)cc1)C(=O)N1CCC[C@H]1C(=O)N[C@@H](CCCNC(=N)N)C(=O)CF [Compound 116] the “Inhibition of RelB cleavage” value [7] was “inhibition of RelB cleavage”, the GI50 ([1]; Homo sapiens) was 130 nM and the Ki [3] was 10 nM. For the same compound, the Maximum killing effect ([4]; TMD8, 20 μM) was 76%, the Maximum killing effect ([5]; OCI-LY3, 20 μM) was 90% and the Maximum killing effect ([6]; OCI-LY1, 20 μM) was 19%.

With CC(C)C[C@H](NC(=O)OCc1ccccc1)C(=O)N(C)[C@H](C(=O)N1CCC[C@H]1C(=O)N[C@@H](CCCNC(=N)N)C(=O)CF)C(C)C [Compound 203] (Cbz-L[NMeV]PR-CH2F) the “Inhibition of RelB cleavage” value [7] was “inhibition of RelB cleavage”, the GI50 [1] was 819 nM and the Maximum killing effect ([4]; TMD8, 20 μM) was 59%. It also gave a Maximum killing effect ([5]; OCI-LY3, 20 μM) of 79% and a Maximum killing effect ([6]; OCI-LY1, 20 μM) of 3%.

Reference: patent US10711036B2, “MALT1 inhibitors and uses thereof” (Cornell University, priority 2015, dated 2020)
